Here are results for 22 compounds from patent US7691848B2, “Pyrrolobenzodiazepine arylcarboxamides and derivatives thereof as follicle-stimulating hormone receptor antagonists” (Wyeth, priority 2005, dated 2010).

pIC50: −log10 of the molar value. Where two headings read alike, the source gives them in different places.

For one series, the target named is T1, human FSH receptor (Homo sapiens, UniProt P23945).
T1 construct: host or cells: CHO-K1 (CHO FSH-R 6CRE-Luc, 1D7 cells)
T1 sequence (P23945 18-695): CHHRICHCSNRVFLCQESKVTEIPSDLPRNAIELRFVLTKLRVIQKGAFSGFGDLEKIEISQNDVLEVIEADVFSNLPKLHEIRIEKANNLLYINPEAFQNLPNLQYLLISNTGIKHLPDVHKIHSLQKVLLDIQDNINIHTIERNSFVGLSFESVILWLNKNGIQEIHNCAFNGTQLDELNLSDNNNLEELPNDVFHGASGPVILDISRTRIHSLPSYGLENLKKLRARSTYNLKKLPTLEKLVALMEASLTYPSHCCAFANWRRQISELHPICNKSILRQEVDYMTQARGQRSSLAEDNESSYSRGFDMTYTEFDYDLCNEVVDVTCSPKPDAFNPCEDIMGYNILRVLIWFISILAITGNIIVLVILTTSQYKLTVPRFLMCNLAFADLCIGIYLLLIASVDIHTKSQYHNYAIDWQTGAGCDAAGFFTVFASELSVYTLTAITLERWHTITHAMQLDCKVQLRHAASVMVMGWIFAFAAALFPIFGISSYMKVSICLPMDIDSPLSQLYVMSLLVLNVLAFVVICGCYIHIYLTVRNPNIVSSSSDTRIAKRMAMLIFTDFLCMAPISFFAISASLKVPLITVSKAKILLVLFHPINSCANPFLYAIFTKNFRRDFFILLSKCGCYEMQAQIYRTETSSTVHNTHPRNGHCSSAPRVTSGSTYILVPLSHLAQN
As to the kind of experiment: Follicle-Stimulating Hormone Receptor-Dependent Cre-Luciferase Reporter Gene Assay (CHO FSH-R 6CRE-Luc cells). In kind it is cell-based. The note with it: for pIC50: dose-response format, in presence of EC50 of purified human FSH. A digest of the protocol: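 CHO-K1 cells stably expressing human FSH receptor and a 6×CRE-driven luciferase reporter; compounds in growth medium with 0.2% DMSO, incubated 4 h at 37 °C. Luciferase measured by chemiluminescence (RLU/sec/well); 2-dose results given as percent inhibition of the response to an EC50 concentration of FSH.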
Background: In a reporter assay the amount or activity of a reporter protein is the signal.

A further series deals with T2, hFSH-R (Homo sapiens, UniProt P23945).
T2 construct: expressed in transfected cells; host or cells: CHO-3D2 cells (CHO-K1 parental line)
T2 sequence (P23945 18-695): T1 sequence (P23945 18-695)
The series is described as follows: cAMP accumulation (RIA) in CHO-3D2 cells (hFSH-R), hFSH-induced. Type of series: cell-based. The settings on record: for Emax: read-out: cAMP % efficacy. As for the experimental part: In Vitro Bio-Assay, Selectivity and Dependency of Agonists and Antagonists to the FSH Receptor
Compound Vehicle: Stock compounds were solubilized in 100% DMSO (Sigma-Aldrich Chemical Co., St. Louis, Mo.) at a concentration of 30 mM. The compounds subsequently were diluted in sterile assay medium consisting of Opti-MEM® I (Invitrogen/Life Technologies, Carlsbad, Calif.) with 0.1% (w/v) BSA (Sigma-Aldrich) prior to use in the bio-assay. The final concentration of DMSO in the assay was 0.1%.
Plated cells are then incubated at 37° C. in a humidified 5% CO2/95% air atmosphere.
Assay: On the day of the assay, cells were washed three times with 100 μl/well of assay medium consisting of Opti-MEM® I (Invitrogen/Life Technologies) with 0.1% (w/v) BSA (Sigma-Aldrich). Medium was removed and 100 μl of assay medium was added to each well. Plates were incubated for an additional 30 minutes at 37° C. […] Reactions were terminated by the addition of 50 μl of 0.2N hydrochloric acid to each well and cAMP-accumulation was measured by radioimmunoassay (RIA) using a commercially available kit (Amersham Biosciences, Piscataway, N.J.).
All test compounds were evaluated in a dose-response paradigm ranging from 0.01 to 30 μM. Controls and test compounds were evaluated in quadruplicate in a 96-well format.
Along with the test compounds, FSH also was run as a positive control in the agonist mode using concentrations ranging from 0.1-1000 ng/ml.
Data were analyzed by one-way analysis of variance and significant differences between treatments and control determined by Least Significant Difference test.
Test compounds were compared to the effect of purified human FSH.

Setting [1] is: inhibition of cAMP accumulation induced by hFSH at EC20, CHO-3D2 cells.

Broadly, the pIC50 is the negative decadic logarithm of the IC50, by convention in mol/L. With `COc1ccccc1-c1ccc(C(=O)N2Cc3ccc(C(=O)NCC(c4ccccc4)N(C)C)n3Cc3ccccc32)cc1` (stereo not drawn) [Example 2], on human FSH receptor, the pIC50 was 4.59. At hFSH-R, the pIC50 is 5.92 and the Emax was found to be 100%.
The corresponding values for `COc1cccc(CNC(=O)c2ccc3n2Cc2ccccc2N(C(=O)c2ccc(-c4ccccc4C)c(C)c2)C3)c1` [Example 7] are 5.65, 6.52 and 89%.
One may read the melting point as the temperature, or range, at which the solid turns liquid. Regarding `COc1ccc(CNC(=O)c2ccc3n2Cc2ccccc2N(C(=O)c2ccc(-c4ccccc4C)c(C)c2)C3)cc1` [Example 8], the melting point was 127 to 128 °C. The pIC50 on human FSH receptor was 5.62. In addition, at hFSH-R, the pIC50 is 5.44 and the Emax amounted to 63%.
On to `Cc1ccccc1-c1ccc(C(=O)N2Cc3ccc(C(=O)NCc4cccc(O)c4)n3Cc3ccccc32)cc1C` [Example 10], for which the pIC50 on human FSH receptor is 5.38. Moreover, on hFSH-R, the pIC50 is 6.05 and the Emax was 97%.
`Cc1ccccc1-c1ccc(C(=O)N2Cc3ccc(C(=O)NCCc4ccc5c(c4)OCO5)n3Cc3ccccc32)cc1C` [Example 33]: the pIC50 on human FSH receptor was 5.25; against hFSH-R, less than 4.52.
In the case of `COc1cc(C(=O)N2Cc3ccc(C(=O)NCc4ccc(F)cc4F)n3Cc3ccccc32)ccc1-c1ccccc1C` [Example 61, N-(2,4-DILUOROBENZYL)-10-[(2-METHOXY-2′-METHYL-1,1′-BIPHENYL-4-YL)CARBONYL]-10,11-DIHYDRO-5H-PYRROLO[2,1-C][1,4]BENZODIAZEPINE-3-CARBOXAMIDE], the “CRE % inhibition (μM)” value on human FSH receptor (2-dose format, concentration in parentheses 30 μM, inhibition of the response to EC50 of FSH) is given as 50(30) %. In addition, the pIC50 at human FSH receptor is 5.37. On hFSH-R (setting [1]), this compound showed a pIC50 of 5.55 and a cAMP % efficacy of 82%.
Compound `COc1cc(CNC(=O)c2ccc3n2Cc2ccccc2N(C(=O)c2ccc(-c4ccccc4C)c(OC)c2)C3)cc(OC)c1` [Example 89, N-(3,5-DIMETHOXYBENZYL)-10-[(2-METHOXY-2′-METHYL-1,1′-BIPHENYL-4-YL)CARBONYL]-10,11-DIHYDRO-5H-PYRROLO[2,1-C][1,4]BENZODIAZEPINE-3-CARBOXAMIDE] yielded a melting point of 175 °C. For the same compound, the pIC50 at human FSH receptor is less than 4.52.
With `Cc1ccccc1-c1ccc(C(=O)N2Cc3ccc(C(=O)NCC(c4ccccc4)c4ccccc4)n3Cc3ccccc32)cc1C` [Example 90], the melting point lay in the range of 126 to 128 °C. Moreover, the pIC50 at human FSH receptor is less than 4.52.
`Cc1ccccc1-c1ccc(C(=O)N2Cc3ccc(C(=O)NCc4ccc(N(C)C)cc4)n3Cc3ccccc32)cc1C` [Example 91]: the melting point fell in the range of 154 to 155 °C. Further, at human FSH receptor, the pIC50 was less than 4.52.
`Cc1ccccc1-c1ccc(C(=O)N2Cc3ccc(C(=O)NC4CCc5ccccc54)n3Cc3ccccc32)cc1C` (stereo not drawn) [Example 92] came in with a melting point of 122 to 124 °C. At human FSH receptor, the negative-log IC50 (pIC50) was less than 4.52.
On the same counts, the results for `Cc1ccccc1-c1ccc(C(=O)N2Cc3ccc(C(=O)NC4Cc5ccccc5C4)n3Cc3ccccc32)cc1C` [Example 93] are 219 to 220 °C and less than 4.52.
For `O=C(NC1CCCc2ccccc21)c1ccc2n1Cc1ccccc1N(C(=O)COc1ccc(Cl)cc1)C2` (stereo not drawn) [Example 94, 10-[(4-CHLOROPHENOXY)ACETYL]-N-(1,2,3,4-TETRAHYDRONAPHTHALEN-1-YL)-10,11-DIHYDRO-5H-PYRROLO[2,1-C][1,4]BENZODIAZEPINE-3-CARBOXAMIDE], the melting point is 199 to 200 °C. Besides, at human FSH receptor, the pIC50 was less than 4.52.
As to `COC(=O)c1ccc(NC(=O)c2ccc3n2Cc2ccccc2N(C(=O)COc2ccc(Cl)cc2)C3)cc1OC` [Example 95, METHYL 4-[({10-[(4-CHLOROPHENOXY)ACETYL]-10,11-DIHYDRO-5H-PYRROLO[2,1-C][1,4]BENZODIAZEPIN-3-YL}CARBONYL)AMINO]-2-METHOXYBENZOATE], the melting point lay in the range of 172 to 174 °C. Further, the pIC50 on human FSH receptor was less than 4.52.
In turn, `CCOC(=O)c1ccc(NC(=O)c2ccc3n2Cc2ccccc2N(C(=O)COc2ccc(Cl)cc2)C3)cc1` [Example 96, ETHYL 4-[({10-[(4-CHLOROPHENOXY)ACETYL]-10,11-DIHYDRO-5H-PYRROLO[2,1-C][1,4]BENZODIAZEPIN-3-YL}CARBONYL)AMINO]BENZOATE] showed a melting point of 199 to 201 °C. Moreover, the pIC50 at human FSH receptor was less than 4.52.
In the case of `O=C(Nc1ccc2c(c1)C(O)c1ccccc1-2)c1ccc2n1Cc1ccccc1N(C(=O)COc1ccc(Cl)cc1)C2` (stereo not drawn) [Example 97, 10-[(4-CHLOROPHENOXY)ACETYL]-N-(9-HYDROXY-9H-FLUOREN-2-YL)-10,11-DIHYDRO-5H-PYRROLO[2,1-C][1,4]BENZODIAZEPINE-3-CARBOXAMIDE], the melting point was 176 to 182 °C. In addition, the pIC50 at human FSH receptor is less than 4.52.
Take `COC(=O)c1cc(NC(=O)c2ccc3n2Cc2ccccc2N(C(=O)COc2ccc(Cl)cc2)C3)cc(C(=O)OC)c1` [Example 98, DIMETHYL 5-[({10-[(4-CHLOROPHENOXY)ACETYL]-10,11-DIHYDRO-5H-PYRROLO[2,1-C][1,4]BENZODIAZEPIN-3-YL}CARBONYL)AMINO]ISOPHTHALATE]: the melting point was in the range of 213 to 217 °C. Also, the pIC50 on human FSH receptor is less than 4.52.
On the same counts, the results for `CCOC(=O)c1cccc(NC(=O)c2ccc3n2Cc2ccccc2N(C(=O)COc2ccc(Cl)cc2)C3)c1` [Example 99, ETHYL 3-[({10-[(4-CHLOROPHENOXY)ACETYL]-10,11-DIHYDRO-5H-PYRROLO[2,1-C][1,4]BENZODIAZEPIN-3-YL}CARBONYL)AMINO]BENZOATE] are 179 to 180 °C and less than 4.52.
`O=C(Nc1cccc(-c2ccccc2)c1)c1ccc2n1Cc1ccccc1N(C(=O)COc1ccc(Cl)cc1)C2` [Example 100, N-(1,1′-BIPHENYL-3-YL)-10-[(4-CHLOROPHENOXY)ACETYL]-10,11-DIHYDRO-5H-PYRROLO[2,1-C][1,4]BENZODIAZEPINE-3-CARBOXAMIDE]: the melting point lay in the range of 185 to 189 °C. On human FSH receptor, the pIC50 is less than 4.52.
For `CN(C)c1cccc(NC(=O)c2ccc3n2Cc2ccccc2N(C(=O)COc2ccc(Cl)cc2)C3)c1` [Example 101, 10-[(4-CHLOROPHENOXY)ACETYL]-N-[3-(DIMETHYLAMINO)PHENYL]-10,11-DIHYDRO-5H-PYRROLO[2,1-C][1,4]BENZODIAZEPINE-3-CARBOXAMIDE], the melting point was in the range of 133 to 136 °C. In addition, on human FSH receptor, the pIC50 is less than 4.52.
For the compound `CC(C)(C)c1ccc(NC(=O)c2ccc3n2Cc2ccccc2N(C(=O)COc2ccc(Cl)cc2)C3)cc1` [Example 102, N-(4-TERT-BUTYLPHENYL)-10-[(4-CHLOROPHENOXY)ACETYL]-10,11-DIHYDRO-5H-PYRROLO[2,1-C][1,4]BENZODIAZEPINE-3-CARBOXAMIDE], the melting point was 111 to 113 °C. Besides, the negative-log IC50 (pIC50) on human FSH receptor is less than 4.52.
`O=C1c2cc(Br)ccc2-c2ccc(NC(=O)c3ccc4n3Cc3ccccc3N(C(=O)COc3ccc(Cl)cc3)C4)cc21` [Example 103, N-(7-BROMO-9-OXO-9H-FLUOREN-2-YL)-10-[(4-CHLOROPHENOXY)ACETYL]-10,11-DIHYDRO-5H-PYRROLO[2,1-C][1,4]BENZODIAZEPINE-3-CARBOXAMIDE]: the melting point lay in the range of 277 to 278 °C. On human FSH receptor, the pIC50 is less than 4.52.
`O=C(NCCc1ccc2c(c1)OCO2)c1ccc2n1Cc1ccccc1N(C(=O)CSc1ccc(Br)cc1)C2` [Example 104, N-[2-(1,3-BENZODIOXOL-5-YL)ETHYL]-10-{[(4-BROMOPHENYL)THIO]ACETYL}-10,11-DIHYDRO-5H-PYRROLO[2,1-C][1,4]BENZODIAZEPINE-3-CARBOXAMIDE] returned a melting point of 143 °C. For the same compound, the pIC50 on human FSH receptor was less than 4.52.
